Reference: US10233201B2, “Class of HDAC inhibitors expands the renal progenitor cells population and improves the rate of recovery from acute kidney injury” (University of Pittsburgh—Of the Commonwealth System of …, priority 2012, dated 2019)

What was measured:
[1] = system: lhx1a, pax2a, pax8, ntla transcripts; test: Relative qPCR in the trunk region of 10-somite embryos; type: in vivo, zebrafish; settings: 3 μM
Description: Conducted as described in WO 2012109527 and in priority U.S. provisional Patent Application No. 61/720,621.

[2] = system: histone H4 acetylation; test: Histone H4 hyperacetylation Western blot in embryos; type: in vivo, zebrafish; settings: 24 hpf embryos treated 6 hours; 3 μM PTBA, 25 μM PBA, 200 nM TSA
Description: It was next determined whether the HDACi function of PTBA was quantifiable in vivo. 24 hpf embryos were treated with 3 μM PTBA, 25 μM PBA, or 200 nM TSA for 6 hours. Protein extracts were prepared and immunoblotted with an anti-hyperacetylated histone H4 antibody. […] Furthermore, increasing the compound concentration caused a corresponding increase in hyperacetylation (FIG. 21).
SDS-PAGE and Western blotting were performed as described previously with some modifications (Noel, E. S. et al. Organ-specific requirements for Hdac1 in liver and pancreas formation. Dev Biol 322, 237-250, (2008)). Proteins were separated on 18% SDS-PAGE gels. Membranes were incubated at 4° C. overnight with 1:1000 anti-hyperacetylated histone H4 antibody (06-946, Millipore) or 1:1000 anti-α-tubulin antibody (Sigma-Aldrich) in PBT containing 5% nonfat milk.

[3] = system: pax2a, pax8 expression (kidney field); test: In situ hybridization for renal progenitor markers pax2a, pax8 / kidney field; type: in vivo, zebrafish
Description: (§1) PTBA was synthesized as described below. Hydroxyurea and aphidicolin were obtained from Sigma-Aldrich.
In situ hybridization and immunocytochemistry: In situ hybridization was performed as previously described with some modifications. 142 Hybridization temperature was 65° C. Embryos were blocked in 2% blocking reagent (Roche) with 5% sheep serum in MAB (100 mM maleic acid and 150 mM NaCl [pH 7.5]). Whole-mount immunocytochemistry with 1:25 mouse anti-α6F antibody (Developmental Studies Hybridoma Bank) and 1:100 Cy3 secondary antibody (Jackson ImmunoResearch) was performed as described previously. 108 Embryos were embedded in JB-4 for sectioning per the manufacturer's instructions (Polysciences), sectioned at 5 μm, and mounted with Cytoseal 60 (Richard-Allan Scientific).

[4] = system: zebrafish larvae; test: Phenotypic scoring of edema and survival in zebrafish larvae at 72 hpf; type: in vivo
Description: as §1
Wild type: no visible edema or developmental delay.

[5] = system: human HDACs (HeLa cell nuclear extract); test: Fluorescence histone deacetylation assay with HeLa cell nuclear extract; type: biochemical

O=C(O)CCCSc1ccccc1 [PTBA, 4-(phenylthio)butanoic acid]
increase in ntla expression (qPCR) [1]: 80%
increase in pax8 expression (qPCR) [1]: 50%
lhx1a relative transcript (qPCR) [1]: three-fold increase
pax2a expression (qPCR) [1]: almost two-fold increase
histone H4 hyperacetylation [2]: hyperacetylation was observed
embryos with expanded pax2a expression ([3]; 3 μM, 10-somite embryos): 95%
pax2a expression at 24 hpf ([3]; 3 μM, treatment begun at 16.5 hpf (15 somites)): no kidney field expansion
pax2a expression at 24 hpf ([3]; 3 μM, treatment initiated between 2 hpf and 14 hpf (10 somites)): expanded pax2a expression
effect on size of the kidney field / renal markers (in situ hybridization) ([3]; screen hits, data not shown): appeared to expand the expression of some renal markers
death by 72 hpf ([4]; 3 μM): without causing significant death
edema in 72 hpf larvae ([4]; 3 μM, treatment initiated at 15 somites or later): lack of edema
phenotype in initial chemical screen ([4]; 10 μM, larvae at 72 hpf): generated pericardial edema
death by 72 hpf ([4]; 10 μM, n=90): died before 72 hpf
larvae with edemic phenotype / pericardial edema at 72 hpf ([4]; treated from 2 hpf, 3 μM PTBA, 25 μM PBA, 200 nM TSA): 92%
HDAC activity, % of the control value ([5]; 5 mM compound, 10 μg HeLa extract): 30%
reduction of HDAC activity ([5]; millimolar concentrations): 70%
